# Assay results as given in PMC6278857, “Anaerobic Degradation of the Plant Sugar Sulfoquinovose Concomitant With H2S Production: Escherichia coli K-12 and Desulfovibrio sp. Strain DF1 as Co-culture Model” (Frontiers in Microbiology, 2018).
# Test system: T1, DhpA (DHPS dehydrogenase)
# T1 construct: full-length gene, N-terminal His-tag (pET28a), from E. coli Rosetta 2 DE3
# Experiment: initial rate of NADH formation at […] nm
# Type: biochemical, Desulfovibrio sp. DF1
# Conditions: 10 mM NAD+, 50 mM Tris-HCl, pH 9.5; racemic substrate; read-out: Kmapp
structure (smiles),measurement,value
O=S(=O)(O)CC(O)CO (racemic) [DHPS],Km,36 ± 4 µM
